Read-outs that look alike come from different tables or passages of the source.
How the values were obtained:
[1] = Example 2: storage stability of standard formulation (pH 6.05), one year at 20-25° C.; type: physicochemical; settings: Example 2 formulation; for Concentration at t = 0: pH 6.05, before storage; for % loss: pH 6.05, one year at 20-25° C.; for Concentration at t = 1 year and 20-25 ° C.: pH 6.05, stored one year at 20-25° C.
Method: Another standard formulation containing the follow active ingredients was created as follows:
The formulation was stored for one year at 20-25° C. The pH of 6.05 providing excellent chemical stability for picarbutrazox as well at the other active ingredients.

[2] = Example 7: picarbutrazox and thiamethoxam stability relative to pH, 54° C. for 2 weeks; type: physicochemical; settings: for Change in thiamethoxam concentration after storage at 54° C. for 2 weeks: Example 7 formulation (20.8% w/w thiamethoxam); for Change in picarbutrazox concentration after storage at 54° C. for 2 weeks: Example 7 formulation (0.42% w/w picarbutrazox)
Excerpt: Two standard formulations containing the follow active ingredients were created. The standard formulations contained customary formulation components and were then pH adjusted via the addition of either Sodium Hydroxide (NaOH) or Phosphoric Acid (H3PO4) to obtain a range of pH's.

[3] = cited from earlier work; for time for degradation in water of at least 50%: pH 9
[4] = Example 8: picarbutrazox and thiamethoxam stability relative to pH, 1 month at 50° C.; type: physicochemical; settings: for Change in thiamethoxam concentration after storage for 1 month at 50° C.: Example 8 formulation (20.8% w/w thiamethoxam); for Change in picarbutrazox concentration after storage for 1 month at 50° C.: Example 8 formulation (0.42% w/w picarbutrazox)
Excerpt: Four standard formulations containing the follow active ingredients were created. The standard formulations contained customary formulation components and were then pH adjusted via the addition of either Sodium Hydroxide (NaOH) or Phosphoric Acid (H3PO4) to obtain a range of pH's.

[5] = pH 7; cited from earlier work
[6] = Example 9: storage stability of 43.3% w/w picarbutrazox formulation; type: physicochemical; settings: Example 9 formulation, picarbutrazox only AI at 43.3% w/w, Initial pH 7.2
Method: A standard formulation was prepared which contained picarbutrazox as the only Al at 43.3% w/w concentration. The initial pH was pH 7.2.

[7] = Example 10: storage stability of mixtures of 36% w/w and 0.8% w/w PCBX formulations, 2 weeks at 54 C.; type: physicochemical; settings: for Actual Measured % w/w PCBX in the combined mixture: before storage
Method: A standard formulation was prepared which contained picarbutrazox at 36% w/w concentration. This was then mixed in differing ratios with a standard formulation which contained picarbutrazox at 0.8% w/w concentration. The mixtures were stored for 2 weeks at 54 C.

[8] = 0% of 36% w/w PCBX formulation + 100% of 0.8% w/w PCBX formulation
[9] = mixture 30% of 36% w/w PCBX formulation + 70% of 0.8% w/w PCBX formulation
[10] = mixture 60% of 36% w/w PCBX formulation + 40% of 0.8% w/w PCBX formulation
[11] = mixture 90% of 36% w/w PCBX formulation + 10% of 0.8% w/w PCBX formulation

N#Cc1c[nH]cc1-c1cccc2c1OC(F)(F)O2 [Fludioxonil]
Concentration at t = 0 [1]: 0.955 % w/w
% loss [1]: 1%
Concentration at t = 1 year and 20-25 ° C. [1]: 0.944 % w/w

COCC(=O)N(c1c(C)cccc1C)[C@H](C)C(=O)OC [Mefenoxam]
Concentration at t = 0 [1]: 5.78 % w/w
% loss [1]: 0%
Concentration at t = 1 year and 20-25 ° C. [1]: 5.77 % w/w

Cn1cc(C(=O)Nc2ccccc2C2CC2C2CC2)c(C(F)F)n1 (centres unmarked) [Sedaxane]
Concentration at t = 0 [1]: 0.974 % w/w
% loss [1]: 0%
Concentration at t = 1 year and 20-25 ° C. [1]: 0.970 % w/w

CN1COCN(Cc2cnc(Cl)s2)/C1=N\[N+](=O)[O-] [Thiamethoxam]
Change in thiamethoxam concentration after storage at 54° C. for 2 weeks ([2]; Initial pH 7.2): −1%
Change in thiamethoxam concentration after storage at 54° C. for 2 weeks ([2]; Initial pH 8.0): −3%
Concentration at t = 0 [1]: 19.5 % w/w
% loss [1]: 2%
Concentration at t = 1 year and 20-25 ° C. [1]: 19.1 % w/w
Hydrolysis ([3]; pH 1, 5, 7 (25° C.)): stable
Hydrolysis DT50 ([3]; pH 9, 25° C.): 7.3 to 15.6 days
Change in thiamethoxam concentration after storage for 1 month at 50° C. ([4]; Initial pH 5.7): −1%
Change in thiamethoxam concentration after storage for 1 month at 50° C. ([4]; Initial pH 6.0): −1%
Change in thiamethoxam concentration after storage for 1 month at 50° C. ([4]; Initial pH 7.2): −5%
Change in thiamethoxam concentration after storage for 1 month at 50° C. ([4]; Initial pH 8.0): −7%

CNC(=O)c1cc(Cl)cc(C)c1NC(=O)c1cc(Br)nn1-c1ncccc1Cl [chlorantraniliprole]
Hydrolysis ([3]; pH 4-7 (25° C.)): stable
Hydrolysis DT50 ([3]; pH 9, 25° C.): 10 days
time for degradation in water of at least 50% [3]: less than 30 days
Aqueous photolysis DT50 [5]: (25° C.). Aqueous photolysis DT50 0.37 d (pH 7).

CNC(=O)c1cc(C#N)cc(C)c1NC(=O)c1cc(Br)nn1-c1ncccc1Cl [cyantraniliprole]
Hydrolysis DT50 ([3]; pH 4, 20° C.): 261 days
Hydrolysis DT50 ([3]; pH 7, 20° C.): 61 days
Hydrolysis DT50 ([3]; pH 9, 20° C.): 1.8 days
time for degradation in water of at least 50% [3]: less than 30 days

Cn1nnnc1/C(=N\OCc1cccc(NC(=O)OC(C)(C)C)n1)c1ccccc1 [picarbutrazox, 1,1-Dimethylethyl N-(6-((((Z)-((1-methyl-1H-tetrazol-5-yl)phenylmethylene)amino)oxy)methyl)-2-pyridinyl)carbamate]
Change in picarbutrazox concentration after storage at 54° C. for 2 weeks ([2]; Initial pH 7.2): −10%
Change in picarbutrazox concentration after storage at 54° C. for 2 weeks ([2]; Initial pH 8.0): −6%
Change in picarbutrazox concentration after storage for 1 month at 50° C. [6]: −1%
Change in picarbutrazox concentration after storage for 2 weeks at 54° C. [6]: −2%
Concentration at t = 0 [1]: 0.365 % w/w
% loss [1]: 0%
Concentration at t = 1 year and 20-25 ° C. [1]: 0.367 % w/w
Change in picarbutrazox concentration after storage for 1 month at 50° C. ([4]; Initial pH 5.7): −16%
Change in picarbutrazox concentration after storage for 1 month at 50° C. ([4]; Initial pH 6.0): −16%
Change in picarbutrazox concentration after storage for 1 month at 50° C. ([4]; Initial pH 7.2): −13%
Change in picarbutrazox concentration after storage for 1 month at 50° C. ([4]; Initial pH 8.0): −5%
Change in PCBX concentration after storage for 2 weeks at 54 C. [7, 8]: 11%
Actual Measured % w/w PCBX in the combined mixture [7, 8]: 0.85% w/w
Change in PCBX concentration after storage for 2 weeks at 54 C. [7, 9]: 0%
Actual Measured % w/w PCBX in the combined mixture [7, 9]: 11.4% w/w
Change in PCBX concentration after storage for 2 weeks at 54 C. [7, 10]: 0%
Actual Measured % w/w PCBX in the combined mixture [7, 10]: 21.8% w/w
Change in PCBX concentration after storage for 2 weeks at 54 C. [7, 11]: 0%
Actual Measured % w/w PCBX in the combined mixture [7, 11]: 32.6% w/w

Reference: US12593847B2, “Formulations” (SYNGENTA CROP PROTECTION AG, priority 2020, dated 2026)
